This note sets out measurements from BindingDB's records for doi:10.1016/0960-894X(95)00044-T (1995).

Structures are written as SMILES.

This assay has as its target DNA. Kind of assay: Inhibition of calf thymus DNA/ethidium bromide complex formation.
As usually defined, the EC50 is the midpoint of the concentration-response curve. Higher therefore signals lower potency in that assay. In turn, `Cc1cc(-c2c(F)cc3c(=O)ccn(C4CC4)c3c2F)cc(C)n1` [1-Cyclopropyl-7-(2,6-dimethyl-pyridin-4-yl)-6,8-difluoro-1H-quinolin-4-one] displayed a 50% effective concentration (EC50) of over 55 µM. As for `Cc1cc(-c2c(F)cc3c4nn([C@H]5CC[C@@H](N)CC5)c(=O)c-4cn(C4CC4)c3c2F)cc(C)n1` [2-(4-Amino-cyclohexyl)-5-cyclopropyl-7-(2,6-dimethyl-pyridin-4-yl)-6,8-difluoro-2,5-dihydro-pyrazolo[4,3-c]quinolin-3-one], the figure is over 50 µM. For `Cc1cc(-c2c(F)cc3c4nn([C@H]5CC[C@H](N)CC5)c(=O)c-4cn(C4CC4)c3c2F)cc(C)n1` [2-(4-Amino-cyclohexyl)-5-cyclopropyl-7-(2,6-dimethyl-pyridin-4-yl)-6,8-difluoro-2,5-dihydro-pyrazolo[4,3-c]quinolin-3-one], the EC50 is over 50 µM. As for `Cc1cc(-c2c(F)cc3c4nn(C5CCCCC5)c(=O)c-4cn(C4CC4)c3c2F)cc(C)n1` [2-Cyclohexyl-5-cyclopropyl-7-(2,6-dimethyl-pyridin-4-yl)-6,8-difluoro-2,5-dihydro-pyrazolo[4,3-c]quinolin-3-one], the figure is over 50 µM; as for `Cc1cc(-c2c(F)cc3c4nn(CCN(C)C)c(=O)c-4cn(C4CC4)c3c2F)cc(C)n1` [5-Cyclopropyl-2-(2-dimethylamino-ethyl)-7-(2,6-dimethyl-pyridin-4-yl)-6,8-difluoro-2,5-dihydro-pyrazolo[4,3-c]quinolin-3-one], 0.93 µM. To `Cc1cc(-c2c(F)cc3c4nn(CCCN(C)C)c(=O)c-4cn(C4CC4)c3c2F)cc(C)n1` [5-Cyclopropyl-2-(3-dimethylamino-propyl)-7-(2,6-dimethyl-pyridin-4-yl)-6,8-difluoro-2,5-dihydro-pyrazolo[4,3-c]quinolin-3-one] belongs over 50 µM; to `Cc1cc(-c2c(F)cc3c4nn([C@H]5CC[C@@H](N(C)C)CC5)c(=O)c-4cn(C4CC4)c3c2F)cc(C)n1` [5-Cyclopropyl-2-(4-dimethylamino-cyclohexyl)-7-(2,6-dimethyl-pyridin-4-yl)-6,8-difluoro-2,5-dihydro-pyrazolo[4,3-c]quinolin-3-one], over 50 µM; to `Cc1cc(-c2c(F)cc3c4nn([C@H]5CC[C@H](N(C)C)CC5)c(=O)c-4cn(C4CC4)c3c2F)cc(C)n1` [5-Cyclopropyl-2-(4-dimethylamino-cyclohexyl)-7-(2,6-dimethyl-pyridin-4-yl)-6,8-difluoro-2,5-dihydro-pyrazolo[4,3-c]quinolin-3-one], over 50 µM. `Cc1cc(-c2c(F)cc3c4n[nH]c(=O)c-4cn(C4CC4)c3c2F)cc(C)n1` [5-Cyclopropyl-7-(2,6-dimethyl-pyridin-4-yl)-6,8-difluoro-2,5-dihydro-pyrazolo[4,3-c]quinolin-3-one] showed an EC50 of 27 µM.

In turn, `Cc1cc(-c2c(F)cc3c4nn(C5CCN(C)CC5)c(=O)c-4cn(C4CC4)c3c2F)cc(C)n1` [5-Cyclopropyl-7-(2,6-dimethyl-pyridin-4-yl)-6,8-difluoro-2-(1-methyl-piperidin-4-yl)-2,5-dihydro-pyrazolo[4,3-c]quinolin-3-one] had an EC50 of over 50 µM. For the compound `Cc1cc(-c2c(F)cc3c4nn(CCO)c(=O)c-4cn(C4CC4)c3c2F)cc(C)n1` [5-Cyclopropyl-7-(2,6-dimethyl-pyridin-4-yl)-6,8-difluoro-2-(2-hydroxy-ethyl)-2,5-dihydro-pyrazolo[4,3-c]quinolin-3-one], the EC50 was over 60 µM. To `Cc1cc(-c2c(F)cc3c4nn(C5CCC(C)CC5)c(=O)c-4cn(C4CC4)c3c2F)cc(C)n1` (stereo unspecified) [5-Cyclopropyl-7-(2,6-dimethyl-pyridin-4-yl)-6,8-difluoro-2-(4-methyl-cyclohexyl)-2,5-dihydro-pyrazolo[4,3-c]quinolin-3-one] belongs over 50 µM; to `Cc1cc(-c2c(F)cc3c4nn(C5CCOCC5)c(=O)c-4cn(C4CC4)c3c2F)cc(C)n1` [5-Cyclopropyl-7-(2,6-dimethyl-pyridin-4-yl)-6,8-difluoro-2-(tetrahydro-pyran-4-yl)-2,5-dihydro-pyrazolo[4,3-c]quinolin-3-one], over 50 µM; to `Cc1cc(-c2c(F)cc3c4nn(CCNCCO)c(=O)c-4cn(C4CC4)c3c2F)cc(C)n1` [5-Cyclopropyl-7-(2,6-dimethyl-pyridin-4-yl)-6,8-difluoro-2-[2-(2-hydroxy-ethylamino)-ethyl]-2,5-dihydro-pyrazolo[4,3-c]quinolin-3-one], 1.2 µM. The compound `Cc1cc(-c2c(F)cc3c4nn(C)c(=O)c-4cn(C4CC4)c3c2F)cc(C)n1` [5-Cyclopropyl-7-(2,6-dimethyl-pyridin-4-yl)-6,8-difluoro-2-methyl-2,5-dihydro-pyrazolo[4,3-c]quinolin-3-one] registered an EC50 of over 60 µM.

Take `Cc1cc(-c2c(F)cc3c4nn(-c5ccccc5)c(=O)c-4cn(C4CC4)c3c2F)cc(C)n1` [5-Cyclopropyl-7-(2,6-dimethyl-pyridin-4-yl)-6,8-difluoro-2-phenyl-2,5-dihydro-pyrazolo[4,3-c]quinolin-3-one]: the EC50 was over 60 µM. To `CC(=O)N[C@H]1CC[C@@H](n2nc3c4cc(F)c(-c5cc(C)nc(C)c5)c(F)c4n(C4CC4)cc-3c2=O)CC1` [N-{4-[5-Cyclopropyl-7-(2,6-dimethyl-pyridin-4-yl)-6,8-difluoro-3-oxo-3,5-dihydro-pyrazolo[4,3-c]quinolin-2-yl]-cyclohexyl}-acetamide] belongs over 52 µM; to `CC(=O)N[C@H]1CC[C@H](n2nc3c4cc(F)c(-c5cc(C)nc(C)c5)c(F)c4n(C4CC4)cc-3c2=O)CC1` [N-{4-[5-Cyclopropyl-7-(2,6-dimethyl-pyridin-4-yl)-6,8-difluoro-3-oxo-3,5-dihydro-pyrazolo[4,3-c]quinolin-2-yl]-cyclohexyl}-acetamide], over 51 µM; to `Cc1cc(-c2c(F)cc3c(=O)c(C(=O)O)cn(C4CC4)c3c2F)cc(C)n1` [WIN-57294], over 54 µM. To `CCOC(=O)Cn1nc2c3cc(F)c(-c4cc(C)nc(C)c4)c(F)c3n(C3CC3)cc-2c1=O` [[5-Cyclopropyl-7-(2,6-dimethyl-pyridin-4-yl)-6,8-difluoro-3-oxo-3,5-dihydro-pyrazolo[4,3-c]quinolin-2-yl]-acetic acid ethyl ester] belongs over 60 µM; to `Cc1cc(-c2c(F)cc3c4nn(CC(=O)O)c(=O)c-4cn(C4CC4)c3c2F)cc(C)n1` [[5-Cyclopropyl-7-(2,6-dimethyl-pyridin-4-yl)-6,8-difluoro-3-oxo-3,5-dihydro-pyrazolo[4,3-c]quinolin-2-yl]-acetic acid], over 60 µM.
